In the supplement of paper PMC10307832:

Key:
Experiment in all cases: relative viability (nuclei count vs DMSO), 5 days (fraction); higher = more cells survive
[1] = system: NCI-H23
In short: (§1)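 Lung cancer cell lines were pin-tool dosed in 1536-well plates on the day after seeding, with either a lone drug or a fixed anchor-drug dose plus five library-drug doses (not always all listed) in √10 steps. Nuclei were counted on 4× images after 5 days. Relative viability is the ratio of treated-well to vehicle-well nuclei counts, with each value a median of duplicate plates.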

[2] = system: NCI-H596
In short: as §1

[3] = system: LK-2
In short: as §1

[4] = system: EKVX
In short: as §1

[5] = system: NCI-H2170
In short: as §1

[6] = system: SW 900
In short: as §1

[7] = system: NCI-H520
In short: as §1

[8] = system: NCI-H1792
In short: as §1

[9] = system: ChaGo-K-1
In short: as §1

[10] = system: COR-L 105
In short: as §1

[11] = system: HCC-366
In short: as §1

[12] = system: LOU-NH91
In short: as §1

[13] = system: NCI-H1975
In short: as §1

[14] = system: A-427
In short: as §1

[15] = system: EMC-BAC-2
In short: as §1

[16] = system: NCI-H1734
In short: as §1

[17] = system: NCI-H441
In short: as §1

[18] = system: NCI-H1755
In short: as §1

[19] = system: NCI-H1666
In short: as §1

[20] = system: PC-3 [JPC-3]
In short: as §1

[21] = system: NCI-H1563
In short: as §1

[22] = system: SK-MES-1
In short: as §1

[23] = system: H3255
In short: as §1

SMILES: O=C(O)c1ccc(-c2c[nH]c3ncc(-c4ccccc4)cc23)cc1C1CCCC1 + N=C(N)NC(=N)NCCc1ccccc1 [Phenformin] (partner 250 µM)
- relative viability ([1]; first compound 0.04 µM): 0.776
- relative viability ([1]; first compound 0.1265 µM): 0.902
- relative viability ([1]; first compound 0.4 µM): 0.814
- relative viability ([1]; first compound 1.265 µM): 0.613
- relative viability ([2]; first compound 0.04 µM): 0.772
- relative viability ([2]; first compound 0.1265 µM): 0.808
- relative viability ([2]; first compound 0.4 µM): 0.79
- relative viability ([2]; first compound 1.265 µM): 0.737
- relative viability ([3]; first compound 0.04 µM): 0.733
- relative viability ([3]; first compound 0.1265 µM): 0.699
- relative viability ([3]; first compound 0.4 µM): 0.377
- relative viability ([3]; first compound 1.265 µM): 0.367
- relative viability ([4]; first compound 0.04 µM): 0.249
- relative viability ([4]; first compound 0.1265 µM): 0.225
- relative viability ([4]; first compound 0.4 µM): 0.245
- relative viability ([4]; first compound 1.265 µM): 0.219
- relative viability ([5]; first compound 0.04 µM): 0.434
- relative viability ([5]; first compound 0.1265 µM): 0.413
- relative viability ([5]; first compound 0.4 µM): 0.459
- relative viability ([5]; first compound 1.265 µM): 0.362
- relative viability ([6]; first compound 0.04 µM): 0.706
- relative viability ([6]; first compound 0.1265 µM): 0.615
- relative viability ([6]; first compound 0.4 µM): 0.654
- relative viability ([6]; first compound 1.265 µM): 0.381
- relative viability ([7]; first compound 0.04 µM): 0.583
- relative viability ([7]; first compound 0.1265 µM): 0.82
- relative viability ([7]; first compound 0.4 µM): 0.585
- relative viability ([7]; first compound 1.265 µM): 0.594
- relative viability ([8]; first compound 0.1265 µM): 0.475
- relative viability ([8]; first compound 0.4 µM): 0.353
- relative viability ([8]; first compound 1.265 µM): 0.413
- relative viability ([9]; first compound 0.04 µM): 0.477
- relative viability ([9]; first compound 0.1265 µM): 0.541
- relative viability ([9]; first compound 0.4 µM): 0.452
- relative viability ([9]; first compound 1.265 µM): 0.507
- relative viability ([10]; first compound 0.04 µM): 0.485
- relative viability ([10]; first compound 0.1265 µM): 0.492
- relative viability ([10]; first compound 0.4 µM): 0.489
- relative viability ([10]; first compound 1.265 µM): 0.446
- relative viability ([11]; first compound 0.04 µM): 0.686
- relative viability ([11]; first compound 0.1265 µM): 0.631
- relative viability ([11]; first compound 0.4 µM): 0.607
- relative viability ([11]; first compound 1.265 µM): 0.611
- relative viability ([12]; first compound 0.04 µM): 0.73
- relative viability ([12]; first compound 0.1265 µM): 0.885
- relative viability ([12]; first compound 0.4 µM): 0.799
- relative viability ([12]; first compound 1.265 µM): 0.751
- relative viability ([13]; first compound 0.04 µM): 0.41
- relative viability ([13]; first compound 0.1265 µM): 0.423
- relative viability ([13]; first compound 0.4 µM): 0.388
- relative viability ([13]; first compound 1.265 µM): 0.298
- relative viability ([14]; first compound 0.04 µM): 0.317
- relative viability ([14]; first compound 0.1265 µM): 0.446
- relative viability ([14]; first compound 0.4 µM): 0.304
- relative viability ([14]; first compound 1.265 µM): 0.264
- relative viability ([15]; first compound 0.04 µM): 0.513
- relative viability ([15]; first compound 0.1265 µM): 0.554
- relative viability ([15]; first compound 0.4 µM): 0.527
- relative viability ([15]; first compound 1.265 µM): 0.424
- relative viability ([16]; first compound 0.04 µM): 0.419
- relative viability ([16]; first compound 0.1265 µM): 0.452
- relative viability ([16]; first compound 0.4 µM): 0.371
- relative viability ([16]; first compound 1.265 µM): 0.358
- relative viability ([17]; first compound 0.04 µM): 0.765
- relative viability ([17]; first compound 0.1265 µM): 1.15
- relative viability ([17]; first compound 0.4 µM): 0.807
- relative viability ([17]; first compound 1.265 µM): 0.28
- relative viability ([18]; first compound 0.04 µM): 0.597
- relative viability ([18]; first compound 0.1265 µM): 0.615
- relative viability ([18]; first compound 0.4 µM): 0.64
- relative viability ([18]; first compound 1.265 µM): 0.604
- relative viability ([19]; first compound 0.04 µM): 0.579
- relative viability ([19]; first compound 0.1265 µM): 0.552
- relative viability ([19]; first compound 0.4 µM): 0.508
- relative viability ([19]; first compound 1.265 µM): 0.363
- relative viability ([20]; first compound 0.04 µM): 0.475
- relative viability ([20]; first compound 0.1265 µM): 0.501
- relative viability ([20]; first compound 0.4 µM): 0.468
- relative viability ([20]; first compound 1.265 µM): 0.436
- relative viability ([21]; first compound 0.04 µM): 0.679
- relative viability ([21]; first compound 0.1265 µM): 0.679
- relative viability ([21]; first compound 0.4 µM): 0.634
- relative viability ([21]; first compound 1.265 µM): 0.654
- relative viability ([22]; first compound 0.04 µM): 0.683
- relative viability ([22]; first compound 0.1265 µM): 0.687
- relative viability ([22]; first compound 0.4 µM): 0.637
- relative viability ([22]; first compound 1.265 µM): 0.447
- relative viability ([23]; first compound 0.04 µM): 0.343
- relative viability ([23]; first compound 0.1265 µM): 0.354
- relative viability ([23]; first compound 0.4 µM): 0.39
- relative viability ([23]; first compound 1.265 µM): 0.372
